In the assay the target is Sodium channel protein type 9 subunit alpha (Homo sapiens, UniProt Q15858). Kind of assay: FLIPR Assay: In vitro assays were performed in a recombinant cell line expressing cDNA encoding the alpha subunit (Nav1.7, SCN9a, PN1, NE) of human Nav1.7 (Accession No. NM_002977). The cell line was provided by investigators at Yale University (Cummins et al, J. Neurosci. 18(23): 9607-9619 (1998)). For dominant selection of the Nav1.7-expressing clones, the expression plasmid co-expressed the neomycin resistance gene. The cell line was constructed in the human embryonic kidney cell line, HEK293, under the influence of the CMV […] promoter, and stable clones were selected using limiting dilution cloning and antibiotic selection using the neomycin analogue, G418. Recombinant beta and gamma subunits were not introduced into this cell line. Additional cell lines expressing recombinant Nav1.7 cloned from other species can also be used, alone or in combination with various beta subunits, gamma subunits or chaperones.
Chain of Sodium channel protein type 9 subunit alpha (Q15858 whole entry): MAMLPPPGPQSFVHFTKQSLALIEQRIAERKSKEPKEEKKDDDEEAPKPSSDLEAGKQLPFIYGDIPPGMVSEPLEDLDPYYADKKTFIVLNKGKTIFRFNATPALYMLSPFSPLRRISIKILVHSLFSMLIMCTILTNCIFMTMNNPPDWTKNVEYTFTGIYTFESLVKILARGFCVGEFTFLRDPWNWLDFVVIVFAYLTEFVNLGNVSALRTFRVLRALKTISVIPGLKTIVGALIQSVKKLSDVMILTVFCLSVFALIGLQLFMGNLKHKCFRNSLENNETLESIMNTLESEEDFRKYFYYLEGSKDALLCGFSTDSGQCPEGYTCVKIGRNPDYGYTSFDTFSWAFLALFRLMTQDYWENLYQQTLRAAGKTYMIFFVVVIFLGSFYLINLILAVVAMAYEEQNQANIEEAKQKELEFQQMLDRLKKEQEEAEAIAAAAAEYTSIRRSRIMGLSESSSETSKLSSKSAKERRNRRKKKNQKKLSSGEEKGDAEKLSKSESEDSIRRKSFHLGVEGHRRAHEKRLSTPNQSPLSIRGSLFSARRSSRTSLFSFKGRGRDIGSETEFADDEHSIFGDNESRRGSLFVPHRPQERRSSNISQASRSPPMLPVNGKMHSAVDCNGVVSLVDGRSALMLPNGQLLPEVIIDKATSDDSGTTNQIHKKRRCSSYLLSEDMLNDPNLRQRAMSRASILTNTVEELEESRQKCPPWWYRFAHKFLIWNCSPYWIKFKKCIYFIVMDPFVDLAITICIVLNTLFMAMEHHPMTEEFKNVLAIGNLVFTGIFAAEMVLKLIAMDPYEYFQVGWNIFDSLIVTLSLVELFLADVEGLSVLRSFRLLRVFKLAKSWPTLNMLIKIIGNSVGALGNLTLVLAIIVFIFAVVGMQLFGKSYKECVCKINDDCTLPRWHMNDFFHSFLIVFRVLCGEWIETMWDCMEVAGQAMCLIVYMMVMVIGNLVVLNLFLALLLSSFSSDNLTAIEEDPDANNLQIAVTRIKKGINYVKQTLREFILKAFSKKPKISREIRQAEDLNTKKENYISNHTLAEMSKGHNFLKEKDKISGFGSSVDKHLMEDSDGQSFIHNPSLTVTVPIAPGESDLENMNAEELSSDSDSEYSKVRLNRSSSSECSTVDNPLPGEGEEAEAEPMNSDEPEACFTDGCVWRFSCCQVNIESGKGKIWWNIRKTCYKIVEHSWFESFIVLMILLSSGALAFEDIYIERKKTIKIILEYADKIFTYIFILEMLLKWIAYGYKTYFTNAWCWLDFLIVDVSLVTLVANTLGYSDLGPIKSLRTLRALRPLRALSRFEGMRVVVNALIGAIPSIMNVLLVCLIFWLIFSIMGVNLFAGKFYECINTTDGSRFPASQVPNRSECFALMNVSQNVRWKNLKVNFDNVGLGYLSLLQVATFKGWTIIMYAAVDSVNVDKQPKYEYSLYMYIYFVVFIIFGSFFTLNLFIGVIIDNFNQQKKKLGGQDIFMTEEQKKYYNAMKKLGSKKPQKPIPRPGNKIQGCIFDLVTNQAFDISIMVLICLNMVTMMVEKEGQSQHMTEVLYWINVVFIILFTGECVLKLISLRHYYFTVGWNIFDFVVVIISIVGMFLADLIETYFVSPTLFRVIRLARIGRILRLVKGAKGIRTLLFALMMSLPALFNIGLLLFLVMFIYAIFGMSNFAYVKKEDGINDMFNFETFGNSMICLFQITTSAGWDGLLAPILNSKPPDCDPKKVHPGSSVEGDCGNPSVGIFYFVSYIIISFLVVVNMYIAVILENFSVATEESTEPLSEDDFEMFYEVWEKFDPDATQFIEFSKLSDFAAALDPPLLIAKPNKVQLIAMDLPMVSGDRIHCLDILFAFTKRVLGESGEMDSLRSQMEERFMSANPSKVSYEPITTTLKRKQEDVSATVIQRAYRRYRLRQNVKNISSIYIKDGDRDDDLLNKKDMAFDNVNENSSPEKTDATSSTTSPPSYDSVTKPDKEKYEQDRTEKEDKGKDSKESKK

Regarding `CC(C)C[C@H](NC(=O)C1CC1)C(=O)Nc1cccc(-c2ccc(Oc3ccc(F)cc3)cc2)n1`, the IC50 (in general, the concentration needed to halve the response being measured) is 0.036 µM.

These data come from ChEMBL document CHEMBL5725985, “Substituted pyridines as sodium channel blockers” (2017).
